Data from US20020192703A1, “Immunoassay reagents and methods for determination of LSD and LSD metabolites” (priority 1995, published 2002).

Tests used:
monoclonal antibody 19A7 = format: binding, mice; details: Concentration Added 0.5 ng/ml
Method: Cross-reactivity was tested by spiking various potential cross-reactants into human urine containing a preservative.

[1] = Urine time course after LSD administration, GC/MS; format: in vivo; details: human
Method: In this example, experiments were performed to better define the time course of excretion of LSD metabolites in urine, and the ability of various immunoassays to detect them.
Individuals were administered LSD, and urine samples were collected over a four-day period. The samples were assayed using the LSD enzyme-complementation immunoassay described in Examples 9 and 10 using monoclonal antibody 19A7. The samples were also measured using the DPC radioimmunoassay (“Coat-A-Count”® LSD assay, by Diagnostic Products Company) according to manufacturer's directions, and by GC/MS).
Results are shown in the following table in terms of LSD equivalents (translating the signal generated using a standard curve obtained with known concentrations of LSD).

central nervous system = details: hallucinations, distortions in sensory perception, mood changes; cited from earlier work
[2] = in man; calculated; cited from earlier work

CCN(CC)C(=O)[C@@H]1C=C2c3cccc4[nH]cc(c34)C[C@H]2N(C)C1 [LSD, lysergic acid diethylamide]
% Cross-Reactivity (monoclonal antibody 19A7; 100 × observed dose / concentration added): 100.00%
Concentration Observed (monoclonal antibody 19A7; in human urine): 0.5 ng/mL
concentration at 4 h ([1]; urine sample JS U3, 4 hrs after LSD administration): 0.39 ng/mL
concentration at 6 h ([1]; urine sample JS U4, 6 hrs after LSD administration): 0.37 ng/mL
concentration at 8 h ([1]; urine sample JS U5, 8 hrs after LSD administration): 0.38 ng/mL
concentration at 10 h ([1]; urine sample JS U6, 10 hrs after LSD administration): 0.64 ng/mL
concentration at 12 h ([1]; urine sample JS U7, 12 hrs after LSD administration): 0.52 ng/mL
concentration at 24 h ([1]; urine sample JS U8, 24 hrs after LSD administration): 0.34 ng/mL
concentration at 36 h ([1]; urine sample JS U9, 36 hrs after LSD administration): 0.03 ng/mL
concentration at 48 h ([1]; urine sample JS U10, 48 hrs after LSD administration): 0.01 ng/mL
concentration at 60 h ([1]; urine sample JS U11, 60 hrs after LSD administration): 0 ng/mL
concentration at 72 h ([1]; urine sample JS U12, 72 hrs after LSD administration): 0.02 ng/mL
concentration at 84 h ([1]; urine sample JS U13, 84 hrs after LSD administration): 0 ng/mL
concentration at 98 h ([1]; urine sample JS U14, 98 hrs after LSD administration): 0 ng/mL
concentration at 2 h ([1]; urine sample SW U2, 2 hrs after LSD administration): 0.33 ng/mL
concentration at 4 h ([1]; urine sample SW U3, 4 hrs after LSD administration): 0.54 ng/mL
concentration at 8 h ([1]; urine sample SW U4, 8 hrs after LSD administration): 0.52 ng/mL
concentration at 8 h ([1]; urine sample SW U5, 8 hrs after LSD administration): 0.71 ng/mL
concentration at 10 h ([1]; urine sample SW U6, 10 hrs after LSD administration): 0.76 ng/mL
concentration at 12 h ([1]; urine sample SW U7, 12 hrs after LSD administration): 1.77 ng/mL
concentration at 24 h ([1]; urine sample SW U8, 24 hrs after LSD administration): 1.42 ng/mL
concentration at 36 h ([1]; urine sample SW U9, 36 hrs after LSD administration): 0.11 ng/mL
concentration at 48 h ([1]; urine sample SW U10, 48 hrs after LSD administration): 0.04 ng/mL
concentration at 60 h ([1]; urine sample SW U11, 60 hrs after LSD administration): 0.02 ng/mL
concentration at 72 h ([1]; urine sample SW U12, 72 hrs after LSD administration): 0 ng/mL
concentration at 96 h ([1]; urine sample SW U14, 96 hrs after LSD administration): 0.01 ng/mL
Oral doses that can cause central nervous system disturbances (as low as) (central nervous system): 25 µg
plasma half-life [2]: about 3 hours
